The assay deals with Sodium-dependent dopamine transporter (Rattus norvegicus, UniProt P23977). As to the kind of experiment: Inhibition of [3H]dopamine uptake at DAT in Sprague-Dawley rat striatum synaptosome. In kind it is tissue-based.
Chain of Sodium-dependent dopamine transporter (P23977 whole entry): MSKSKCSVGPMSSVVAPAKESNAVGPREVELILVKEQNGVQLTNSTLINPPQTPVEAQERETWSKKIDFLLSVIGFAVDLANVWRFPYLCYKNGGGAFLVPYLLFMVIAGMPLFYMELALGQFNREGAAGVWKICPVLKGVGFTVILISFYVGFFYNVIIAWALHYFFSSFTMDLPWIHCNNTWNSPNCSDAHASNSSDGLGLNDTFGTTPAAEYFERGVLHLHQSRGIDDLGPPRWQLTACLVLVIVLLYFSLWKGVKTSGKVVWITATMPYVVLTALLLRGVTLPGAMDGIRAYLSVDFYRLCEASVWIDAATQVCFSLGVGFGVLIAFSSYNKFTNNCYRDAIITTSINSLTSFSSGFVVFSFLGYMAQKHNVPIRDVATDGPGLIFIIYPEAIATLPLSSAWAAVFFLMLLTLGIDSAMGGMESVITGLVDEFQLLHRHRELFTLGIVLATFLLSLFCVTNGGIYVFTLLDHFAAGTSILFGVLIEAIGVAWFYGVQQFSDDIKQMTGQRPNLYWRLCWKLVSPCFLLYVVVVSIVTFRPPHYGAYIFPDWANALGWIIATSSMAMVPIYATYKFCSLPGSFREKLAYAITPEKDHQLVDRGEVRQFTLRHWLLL
In general, Ki refers to the dissociation constant of the complex between target and ligand, obtained from inhibition or displacement. A high value points to lower affinity. In the case of `Fc1ccc(C(OCCN2CC3CC(C2)N3C/C=C/c2ccco2)c2ccc(F)cc2)cc1`, the affinity, expressed as Ki, was 8.8 nM.

As for `Fc1ccc(C(OCCN2CC3CC(C2)N3CC2=Cc3ccccc3C2)c2ccc(F)cc2)cc1`, the Ki is 6.5 nM.

`Fc1ccc(C(OCCN2CC3CC(C2)N3C/C=C/c2ccc3ccccc3c2)c2ccc(F)cc2)cc1` registered a Ki of 45.6 nM.

Take `Fc1ccc(C(OCCN2CC3CC(C2)N3Cc2cc3ccccc3s2)c2ccc(F)cc2)cc1`: the affinity, expressed as Ki, was 35 nM.

As to `Cc1ccccc1/C=C/CN1C2CC1CN(CCOC(c1ccc(F)cc1)c1ccc(F)cc1)C2`, the Ki is 6.25 nM.

Regarding `Fc1ccc(C(OCCN2CC3CC(C2)N3C/C=C/c2ccccc2)c2ccc(F)cc2)cc1`, the affinity corresponds to a Ki of 9.1 nM.

`Fc1ccc(C(OCCN2CC3CC(C2)N3Cc2cc3ccccc3[nH]2)c2ccc(F)cc2)cc1`: the affinity, expressed as Ki, was 5.5 nM.

Regarding `Fc1ccc(C(OCCN2CC3CC(C2)N3C/C=C/c2cccs2)c2ccc(F)cc2)cc1`, the Ki turned out to be 12.6 nM.

Consider `Fc1ccc(C(OCCN2CC3CC(C2)N3Cc2cc3ccccc3o2)c2ccc(F)cc2)cc1`, for which the Ki came to 37.5 nM.
